Results from patent publication US10577363B2, “Substituted piperidine compounds” (EPIZYME, INC., priority 2014, dated 2020).

Each compound was assayed against SMYD3 (Homo sapiens (Human), UniProt Q9H7B4) (assay: SMYD3 biochemical assay (SPA, 3H-SAM methylation of MEKK2 protein substrate)). Details: read-out: SMYD3 Biochem IC50 (μM)*.
Summary of the method: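 Methylation of N-terminally GST-tagged MEKK2 by untagged full-length human SMYD3, using 3H-SAM, in pH 8.0 Tris buffer with TCEP, BSG and Tween 20; enzyme and compound sat 30 min at room temperature before substrate addition. Stopped with 100 uM (final) cold SAM; incorporation read by scintillation proximity as dpm/cpm.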
Compound N[C@H]1CC[C@H](C(=O)N2CC[C@@H](NC(=O)c3cc(C4CC4)on3)C[C@H]2CO)CC1 [compound 384, N-((2S,4R)-1-((1r,4S)-4-aminocyclohexane-1-carbonyl)-2-(hydroxymethyl)piperidin-4-yl)-5-cyclopropylisoxazole-3-carboxamide] has an IC50 of 4.04 µM.
C[C@@H]1CN(S(=O)(=O)CCCN)CC[C@H]1NC(=O)c1cc(C2CC2)on1 [compound 388, N-((3R,4R)-1-((3-aminopropyl)sulfonyl)-3-methylpiperidin-4-yl)-5-cyclopropylisoxazole-3-carboxamide] showed an IC50 of 0.462 µM.
With N[C@H]1CC[C@H](C(=O)N2CC[C@@H](NC(=O)c3cc(C4CC4)on3)C[C@@H]2Cc2ccccc2)CC1 [compound 389, N-((2S,4R)-1-((1r,4S)-4-aminocyclohexane-1-carbonyl)-2-benzylpiperidin-4-yl)-5-cyclopropylisoxazole-3-carboxamide] the IC50 was greater than 10 µM.
Compound C[C@@H]1C[C@@H](NC(=O)c2cc(C3CC3)on2)CCN1C(=O)c1cccc(C(C)(C)N)c1 [compound 392, N-((2R,4S)-1-(3-(2-aminopropan-2-yl)benzoyl)-2-methylpiperidin-4-yl)-5-cyclopropylisoxazole-3-carboxamide] has an IC50 greater than 10 µM.
In the case of COCC(C)S(=O)(=O)N1CC[C@H](NC(=O)c2cc(C3CC3)on2)C[C@@H]1C (stereo partly drawn) [compound 393, 5-cyclopropyl-N-((2S,4S)-1-((1-methoxypropan-2-yl)sulfonyl)-2-methylpiperidin-4-yl)isoxazole-3-carboxamide], the IC50 was 3.16 µM.
In the case of CC(C)OCCS(=O)(=O)N1CC[C@@H](NC(=O)c2cc(C3CC3)on2)C[C@@H]1C [compound 394, 5-cyclopropyl-N-((2S,4R)-1-((2-isopropoxyethyl)sulfonyl)-2-methylpiperidin-4-yl)isoxazole-3-carboxamide], the IC50 was greater than 10 µM.
O=C(N[C@@H]1CCN(S(=O)(=O)CCN2CCCC2)[C@@H](Cc2ccccc2)C1)c1cc(C2CC2)on1 [compound 406, N-((2S,4R)-2-benzyl-1-((2-(pyrrolidin-1-yl)ethyl)sulfonyl)piperidin-4-yl)-5-cyclopropylisoxazole-3-carboxamide] was tested, and the IC50 was 3.41 µM.
O=C(N[C@H]1CCN(S(=O)(=O)CCN2CCCC2)[C@H](Cc2ccccc2)C1)c1cc(C2CC2)on1 [compound 408, N-((2R,4S)-2-benzyl-1-((2-(pyrrolidin-1-yl)ethyl)sulfonyl)piperidin-4-yl)-5-cyclopropylisoxazole-3-carboxamide] was tested, and the IC50 was 1.15 µM.
For O=C(N[C@@H]1CCN(S(=O)(=O)CCN2CCOCC2)[C@@H](Cc2ccccc2)C1)c1cc(C2CC2)on1 [compound 409, N-((2S,4R)-2-benzyl-1-((2-morpholinoethyl)sulfonyl)piperidin-4-yl)-5-cyclopropylisoxazole-3-carboxamide], the IC50 was greater than 10 µM.
For CC(C)CN(C)c1ccc(S(=O)(=O)N2CC[C@@H](NC(=O)c3cc(C4CC4)on3)C[C@@H]2C)cn1 [compound 411, 5-cyclopropyl-N-((2S,4R)-1-((6-(isobutyl(methyl)amino)pyridin-3-yl)sulfonyl)-2-methylpiperidin-4-yl)isoxazole-3-carboxamide], the IC50 was greater than 10 µM.
In the case of O=C(NC1CC2CCC(C1)N2S(=O)(=O)CC1CCNCC1)c1cc(C2CC2)on1 (centres unmarked) [compound 416, 5-cyclopropyl-N-(8-((piperidin-4-ylmethyl)sulfonyl)-8-azabicyclo[3.2.1]octan-3-yl)isoxazole-3-carboxamide], the IC50 was 0.164 µM.
With N[C@H]1CC[C@H](C(=O)N2CC[C@H](NC(=O)c3cc(C4CC4)on3)[C@@H](CO)C2)CC1 [compound 421, N-((3S,4S)-1-((1r,4S)-4-aminocyclohexane-1-carbonyl)-3-(hydroxymethyl)piperidin-4-yl)-5-cyclopropylisoxazole-3-carboxamide] the IC50 was 2.51 µM.
Work on N[C@H]1CC[C@H](C(=O)N2CC[C@H](NC(=O)c3cc(C4CC4)on3)[C@H](CO)C2)CC1 [compound 422, N-((3R,4S)-1-((1r,4R)-4-aminocyclohexane-1-carbonyl)-3-(hydroxymethyl)piperidin-4-yl)-5-cyclopropylisoxazole-3-carboxamide] yielded an IC50 of 1.94 µM.
C[C@@H]1C[C@@H](NC(=O)c2cc(C3CC3)on2)CCN1C(=O)c1ccc2[nH]cnc2c1 [compound 425, N-((2R,4S)-1-(1H-benzo[d]imidazole-5-carbonyl)-2-methylpiperidin-4-yl)-5-cyclopropylisoxazole-3-carboxamide] gave an IC50 greater than 10 µM.
In the case of C[C@H]1C[C@H](NC(=O)c2cc(C3CC3)on2)CCN1C(=O)c1ccc2[nH]cnc2c1 [compound 426, N-((2S,4R)-1-(1H-benzo[d]imidazole-5-carbonyl)-2-methylpiperidin-4-yl)-5-cyclopropylisoxazole-3-carboxamide], the IC50 was greater than 10 µM.
N[C@H]1CC[C@@H](C(=O)N2[C@@H]3CC[C@H]2C[C@@H](NC(=O)c2cc(C4CC4)on2)C3)CC1 [compound 429, N-((1R,3R,5S)-8-((1s,4S)-4-aminocyclohexane-1-carbonyl)-8-azabicyclo[3.2.1]octan-3-yl)-5-cyclopropylisoxazole-3-carboxamide] gave an IC50 of 0.351 µM.
Compound NCCCS(=O)(=O)N1CCC(NC(=O)c2cc(C3CC3)on2)CC12CCC2 (centres unmarked) [compound 445, N-(5-((3-aminopropyl)sulfonyl)-5-azaspiro[3.5]nonan-8-yl)-5-cyclopropylisoxazole-3-carboxamide] has an IC50 of 0.13 µM.
CNc1ccc(S(=O)(=O)N2CC[C@H](NC(=O)c3cc(C4CC4)on3)C[C@H]2C)cn1 [compound 447, 5-cyclopropyl-N-((2R,4S)-2-methyl-1-((6-(methylamino)pyridin-3-yl)sulfonyl)piperidin-4-yl)isoxazole-3-carboxamide] gave an IC50 greater than 10 µM.
In the case of CNc1ccc(S(=O)(=O)N2CC[C@@H](NC(=O)c3cc(C4CC4)on3)C[C@@H]2C)cn1 [compound 448, 5-cyclopropyl-N-((2S,4R)-2-methyl-1-((6-(methylamino)pyridin-3-yl)sulfonyl)piperidin-4-yl)isoxazole-3-carboxamide], the IC50 was greater than 10 µM.
In the case of CC(C)CNc1ccc(S(=O)(=O)N2CC[C@H](NC(=O)c3cc(C4CC4)on3)C[C@H]2C)cn1 [compound 451, 5-cyclopropyl-N-((2R,4S)-1-((6-(isobutylamino)pyridin-3-yl)sulfonyl)-2-methylpiperidin-4-yl)isoxazole-3-carboxamide], the IC50 was greater than 10 µM.
CC(C)CNc1ccc(S(=O)(=O)N2CC[C@@H](NC(=O)c3cc(C4CC4)on3)C[C@@H]2C)cn1 [compound 452, 5-cyclopropyl-N-((2S,4R)-1-((6-(isobutylamino)pyridin-3-yl)sulfonyl)-2-methylpiperidin-4-yl)isoxazole-3-carboxamide] gave an IC50 greater than 10 µM.
In the case of COCCNc1ccc(S(=O)(=O)N2CC[C@H](NC(=O)c3cc(C4CC4)on3)C[C@H]2C)cn1 [compound 456, 5-cyclopropyl-N-((2R,4S)-1-((6-((2-methoxyethyl)amino)pyridin-3-yl)sulfonyl)-2-methylpiperidin-4-yl)isoxazole-3-carboxamide], the IC50 was greater than 10 µM.
In the case of C[C@H]1C[C@H](NC(=O)c2cc(C3CC3)on2)CCN1S(=O)(=O)c1ccc(N(C)CCN)nc1 [compound 462, N-((2S,4R)-1-((6-((2-aminoethyl)(methyl)amino)pyridin-3-yl)sulfonyl)-2-methylpiperidin-4-yl)-5-cyclopropylisoxazole-3-carboxamide], the IC50 was 0.305 µM.
In the case of C[C@H]1C[C@@H](NC(=O)c2cc(C3CC3)on2)CCN1S(=O)(=O)c1ccc(Cl)cn1 [compound 466, N-((2S,4S)-1-((5-chloropyridin-2-yl)sulfonyl)-2-methylpiperidin-4-yl)-5-cyclopropylisoxazole-3-carboxamide], the IC50 was 0.121 µM.
Work on COC(=O)C1CN(C(=O)[C@H]2CC[C@H](N)CC2)CC(C)C1NC(=O)c1cc(C2CC2)on1 (some centres unmarked) [compound 468, methyl 1-((1r,4r)-4-aminocyclohexane-1-carbonyl)-4-(5-cyclopropylisoxazole-3-carboxamido)-5-methylpiperidine-3-carboxylate] yielded an IC50 of 1.22 µM.
For N[C@H]1CC[C@H](C(=O)N2CCC(NC(=O)c3cc(C4CC4)on3)C(c3ccccc3)C2)CC1 (some centres unmarked) [compound 469, N-(1-((1r,4r)-4-aminocyclohexane-1-carbonyl)-3-phenylpiperidin-4-yl)-5-cyclopropylisoxazole-3-carboxamide], the IC50 was 6.28 µM.
NCCCS(=O)(=O)N1CCC(NC(=O)c2cc(C3CC3)on2)C(c2ccccc2)C1 (centres unmarked) [compound 470, N-(1-((3-aminopropyl)sulfonyl)-3-phenylpiperidin-4-yl)-5-cyclopropylisoxazole-3-carboxamide] was tested, and the IC50 was 2.76 µM.
Work on COC(=O)C1CN(C(=O)CCCN)CC(C)C1NC(=O)c1cc(C2CC2)on1 (centres unmarked) [compound 471, methyl 1-(4-aminobutanoyl)-4-(5-cyclopropylisoxazole-3-carboxamido)-5-methylpiperidine-3-carboxylate] yielded an IC50 of 5.76 µM.
Compound CC(C)CN(C)c1ncccc1S(=O)(=O)N1C2CCCC1CC(NC(=O)c1cc(C3CC3)on1)C2 (centres unmarked) [compound 472, 5-cyclopropyl-N-(9-((2-(isobutyl(methyl)amino)pyridin-3-yl)sulfonyl)-9-azabicyclo[3.3.1]nonan-3-yl)isoxazole-3-carboxamide] has an IC50 greater than 10 µM.
For CC(C)CNc1ncccc1S(=O)(=O)N1C2CCCC1CC(NC(=O)c1cc(C3CC3)on1)C2 (centres unmarked) [compound 473, 5-cyclopropyl-N-(9-((2-(isobutylamino)pyridin-3-yl)sulfonyl)-9-azabicyclo[3.3.1]nonan-3-yl)isoxazole-3-carboxamide], the IC50 was 5.97 µM.
Compound CC(C)CNc1ncccc1S(=O)(=O)N1CC[C@H](NC(=O)c2cc(C3CC3)on2)C[C@@H]1C [compound 474, 5-cyclopropyl-N-((2S,4S)-1-((2-(isobutylamino)pyridin-3-yl)sulfonyl)-2-methylpiperidin-4-yl)isoxazole-3-carboxamide] has an IC50 of 2.74 µM.
Compound NCCNc1ncccc1S(=O)(=O)N1C2CCCC1CC(NC(=O)c1cc(C3CC3)on1)C2 (centres unmarked) [compound 476, N-(9-((2-((2-aminoethyl)amino)pyridin-3-yl)sulfonyl)-9-azabicyclo[3.3.1]nonan-3-yl)-5-cyclopropylisoxazole-3-carboxamide] has an IC50 of 1.31 µM.
